Measurements taken from paper PMC11672294, “The Antipsychotic Drug Aripiprazole Suppresses Colorectal Cancer by Targeting LAMP2a to Induce RNH1/miR‐99a/mTOR‐Mediated Autophagy and Apoptosis” (Advanced Science, 2024).
Where a name gives a salt, the structure may show the parent alone.

The molecules below were run on HT29. Settings: 72 h, relative to DMSO, 10 µM, Relative cell viability (%).
Outline: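 Cells were exposed to drug for 72 h, then to WST-1 for 2 h at 37 °C, and absorbance was read at 450 nm as viability against DMSO treatment. In the screen, each compound was applied at 10 µM.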

Row | Compound | Relative cell viability (%)
1 | N#CC[C@H](C1CCCC1)n1cc(-c2ncnc3[nH]ccc23)cn1 [Ruxolitinib (INCB018424)] | 77.41%
2 | N#CC[C@H](C1CCCC1)n1cc(-c2ncnc3[nH]ccc23)cn1 [S-Ruxolitinib (INCB018424)] | 98.54%
3 | CC/C(=C(\c1ccccc1)c1ccc(OCCN(C)C)cc1)c1ccccc1 [Tamoxifen Citrate] | 47.42%
4 | CC/C(=C(\c1ccccc1)c1ccc(OCCN(C)C)cc1)c1ccccc1 [Tamoxifen] | 18.22%
5 | COc1cc2nc(N3CCN(C(=O)C4CCCO4)CC3)nc(N)c2cc1OC (stereo not shown) [Terazosin HCl] | 142.1%
6 | COc1cc2nc(N3CCN(C(=O)C4CCCO4)CC3)nc(N)c2cc1OC (stereo not shown) [Terazosin] | 88.03%
7 | C[C@@H]1CCN(C(=O)CC#N)C[C@@H]1N(C)c1ncnc2[nH]ccc12 [Tofacitinib (CP-690550) Citrate] | 115%
8 | C[C@@H]1CCN(C(=O)CC#N)C[C@@H]1N(C)c1ncnc2[nH]ccc12 [Tofacitinib (CP-690550,Tasocitinib)] | 51.94%

Same assay, conditions: 72 h, relative to DMSO; 10 µM

Row | Compound | Relative cell viability (%)
9 | C[C@@H]1O[C@@H](OC[C@H]2O[C@@H](Oc3c(-c4ccc(O)c(O)c4)oc4cc(O)cc(O)c4c3=O)[C@H](O)[C@@H](O)[C@@H]2O)[C@H](O)[C@H](O)[C@H]1O [Rutin] | 112%
10 | COc1ccc([C@H]2CNC(=O)C2)cc1OC1CCCC1 [S- (+)-Rolipram] | 107.3%
11 | CC(C)=CCC/C(C)=C/CC/C(C)=C/CSc1ccccc1C(=O)O [Salirasib] | 84.19%
12 | O=C(O)c1cn(-c2ccc(F)cc2)c2cc(N3CCNCC3)c(F)cc2c1=O [Sarafloxacin HCl] | 85.35%
13 | N#C[C@@H]1C[C@@H]2C[C@@H]2N1C(=O)[C@@H](N)C12CC3CC(CC(O)(C3)C1)C2 [Saxagliptin hydrate] | 117.5%
14 | NCCc1c[nH]c2ccc(O)cc12 [Serotonin HCl] | 86.67%
15 | CCCc1nn(C)c2c(=O)[nH]c(-c3cc(S(=O)(=O)N4CCN(C)CC4)ccc3OCC)nc12 [Sildenafil Mesylate] | 91.88%
16 | COc1cc([C@H]2Oc3cc([C@H]4Oc5cc(O)cc(O)c5C(=O)[C@@H]4O)ccc3O[C@@H]2CO)ccc1O [Silibinin] | 119.6%
17 | N[C@@H]1CN(c2c(F)cc3c(=O)c(C(=O)O)cn([C@@H]4C[C@@H]4F)c3c2Cl)CC12CC2 [Sitafloxacin Hydrate] | 126.1%
18 | CC(C)OC(=O)[C@H](C)N[P@](=O)(OC[C@H]1O[C@@H](n2ccc(=O)[nH]c2=O)[C@](C)(F)[C@@H]1O)Oc1ccccc1 [Sofosbuvir (PSI-7977, GS-7977)] | 121.8%
19 | CNC(=O)c1cc(Oc2ccc(NC(=O)Nc3ccc(Cl)c(C(F)(F)F)c3)cc2)ccn1 [Sorafenib] | 21.37%
20 | OC[C@@H](O)[C@@H](O)[C@H](O)[C@@H](O)CO [Sorbitol] | 125%
21 | CN1CCN(c2nc(C3=C(c4c[nH]c5ccccc45)C(=O)NC3=O)c3ccccc3n2)CC1 [Sotrastaurin] | 49.03%
22 | C[C@@H]1CN(c2c(F)c(N)c3c(=O)c(C(=O)O)cn(C4CC4)c3c2F)C[C@H](C)N1 [Sparfloxacin] | 75.42%
23 | CN(N=O)C(=O)N[C@@H](C=O)[C@@H](O)[C@H](O)[C@H](O)CO [Streptozotocin (STZ)] | 74.3%
24 | CC1(C)[C@H](C(=O)O)N2C(=O)C[C@H]2S1(=O)=O [Sulbactam] | 199.5%
25 | Nc1ccc(S(=O)(=O)Nc2ncccn2)cc1 [Sulfadiazine] | 85.59%
26 | [H]/N=C(/N)NS(=O)(=O)c1ccc(N)cc1 [Sulfaguanidine] | 70.303%
27 | Cc1nnc(NS(=O)(=O)c2ccc(N)cc2)s1 [Sulfamethizole] | 202.3%
28 | COc1ccc(NS(=O)(=O)c2ccc(N)cc2)nn1 [Sulfamethoxypyridazine] | 72.12%
29 | Cc1noc(NS(=O)(=O)c2ccc(N)cc2)c1C [Sulfisoxazole] | 134.3%

Row | Compound | Relative cell viability (%)
30 | CC1=C(CC(=O)O)c2cc(F)ccc2/C1=C\c1ccc([S+](C)[O-])cc1 (stereo not shown) [Sulindac] | 216.9%
31 | COc1cc(NS(=O)(=O)c2ccc(N)cc2)nc(OC)n1 [Sulphadimethoxine] | 86.06%
32 | CCN(CC)CCNC(=O)c1c(C)[nH]c(/C=C2\C(=O)Nc3ccc(F)cc32)c1C [Sunitinib] | 29.06%
33 | CC(C(=O)O)c1ccc(C(=O)c2cccs2)cc1 (stereo not shown) [Suprofen] | 93.22%
34 | Cc1ccc(-n2nccn2)c(C(=O)N2CCN(c3nc4cc(Cl)ccc4o3)CC[C@H]2C)c1 [Suvorexant (MK-4305)] | 90.6%
35 | Cc1cnc(Nc2ccc(OCCN3CCCC3)cc2)nc1Nc1cccc(S(=O)(=O)NC(C)(C)C)c1 [TG101348 (SAR302503)] | 16.99%
36 | Cn1c(COP(=O)(NCCBr)NCCBr)cnc1[N+](=O)[O-] [TH-302] | 83.98%
37 | C=CC[C@@H]1/C=C(\C)C[C@H](C)C[C@H](OC)[C@H]2O[C@@](O)(C(=O)C(=O)N3CCCC[C@H]3C(=O)O[C@H](/C(C)=C/[C@@H]3CC[C@@H](O)[C@H](OC)C3)[C@H](C)[C@@H](O)CC1=O)[C@H](C)C[C@@H]2OC [Tacrolimus (FK506)] | 102.1%
38 | CN(C(=O)c1ccc(F)cc1C(F)(F)F)C1CCN(c2nnc(-c3ccnn3C)c3ccccc23)CC1 [Taladegib (LY2940680)] | 105.5%
39 | CC1(C)CCC(C)(C)c2cc(NC(=O)c3ccc(C(=O)O)cc3)ccc21 [Tamibarotene] | 94.85%
40 | O=C(NS(=O)(=O)c1ccc(Br)s1)c1ccc(Cl)cc1Cl [Tasisulam] | 94.44%
41 | CCCc1nc2c(C)cc(-c3nc4ccccc4n3C)cc2n1Cc1ccc(-c2ccccc2C(=O)O)cc1 [Telmisartan] | 47.46%
42 | CCOC(=O)[C@@H](N)Cc1ccc(-c2cc(O[C@H](c3ccc(Cl)cc3-n3ccc(C)n3)C(F)(F)F)nc(N)n2)cc1 [Telotristat Etiprate (LX 1606 Hippurate)] | 86.05%
43 | CCOC(=O)[C@H](CCc1ccccc1)N[C@H]1CS[C@H](c2cccs2)CN(CC(=O)O)C1=O [Temocapril HCl] | 117.3%
44 | Cn1nnc2c(C(N)=O)ncn2c1=O [Temozolomide] | 86.76%
45 | COc1cc([C@@H]2c3cc4c(cc3[C@@H](O[C@@H]3O[C@@H]5CO[C@@H](c6cccs6)O[C@H]5[C@H](O)[C@H]3O)[C@H]3COC(=O)[C@H]23)OCO4)cc(OC)c1O [Teniposide] | 34.75%
46 | CC(C)OC(=O)[C@H](C)N[P@](=O)(CO[C@H](C)Cn1cnc2c(N)ncnc21)Oc1ccccc1 [Tenofovir Alafenamide (GS-7340)] | 125.2%
47 | CN1CCC(COc2cnc(-c3cccc(Cn4nc(-c5cccc(C#N)c5)ccc4=O)c3)nc2)CC1 [Tepotinib (EMD 1214063)] | 11.11%
48 | C/C(O)=C(\C#N)C(=O)Nc1ccc(C(F)(F)F)cc1 [Teriflunomide] | 75.76%
49 | c1ccc2[nH]c(-c3cscn3)nc2c1 [Thiabendazole] | 70.34%
50 | O=c1sn(-c2cccc3ccccc23)c(=O)n1Cc1ccccc1 [Tideglusib] | 51.94%

Row | Compound | Relative cell viability (%)
51 | Clc1ccc(C(Cn2ccnc2)OCc2ccsc2Cl)c(Cl)c1 (stereo not shown) [Tioconazole] | 135.7%
52 | CC(S)C(=O)NCC(=O)O (stereo not shown) [Tiopronin] | 149.2%
53 | O=c1oc2cc(O)ccc2s1 [Tioxolone] | 114.6%
54 | O=C(O)Cc1cc(I)c(Oc2ccc(O)c(I)c2)c(I)c1 [Tiratricol] | 83.03%
55 | O=C1NC(=O)[C@@H](c2cn3c4c(cccc24)CCC3)[C@@H]1c1c[nH]c2ccccc12 [Tivantinib (ARQ 197)] | 27.18%
56 | CCCCNC(=O)NS(=O)(=O)c1ccc(C)cc1 [Tolbutamide] | 106.1%
57 | Cc1c(Cl)cccc1Nc1ccccc1C(=O)O [Tolfenamic Acid] | 166.2%
58 | Cc1cccc(N(C)C(=S)Oc2ccc3ccccc3c2)c1 [Tolnaftate] | 126.1%
59 | Cc1ccc(C(=O)C(C)CN2CCCCC2)cc1 (stereo not shown) [Tolperisone HCl] | 89.39%
60 | Cc1ccccc1C(=O)Nc1ccc(C(=O)N2CCCC(O)c3cc(Cl)ccc32)c(C)c1 (stereo not shown) [Tolvaptan] | 54.85%
61 | CC[C@@]1(O)C(=O)OCc2c1cc1n(c2=O)Cc2cc3c(CN(C)C)c(O)ccc3nc2-1 [Topotecan HCl] | 16.67%
62 | CN(C)CCOc1ccc(/C(=C(/CCCl)c2ccccc2)c2ccccc2)cc1 [Toremifene Citrate] | 34.75%
63 | CC(=O)Nc1cccc(-n2c(=O)n(C3CC3)c(=O)c3c(Nc4ccc(I)cc4F)n(C)c(=O)c(C)c32)c1 [Trametinib (GSK1120212)] | 35.92%
64 | Cn1c(=O)cc(N2CCC[C@@H](N)C2)n(Cc2cc(F)ccc2C#N)c1=O [Trelagliptin] | 63.68%
65 | C[C@]12C=CC(=O)C=C1CC[C@H]1[C@@H]3C[C@@H](O)[C@](O)(C(=O)CO)[C@@]3(C)C[C@H](O)[C@@]12F [Triamcinolone] | 171.8%
66 | O=c1[nH]c(=O)n([C@H]2C[C@H](O)[C@@H](CO)O2)cc1C(F)(F)F [Trifluridine] | 53.81%
67 | CCC(COC(=O)c1cc(OC)c(OC)c(OC)c1)(c1ccccc1)N(C)C (stereo not shown) [Trimebutine] | 107.3%
68 | NC(CO)(CO)CO [Trometamol] | 73.94%
69 | CCN(Cc1ccncc1)C(=O)C(CO)c1ccccc1 (stereo not shown) [Tropicamide] | 144.5%

Same assay, conditions: ht29 cells, 72 h, 10 µM

Row | Compound | Relative cell viability (%)
70 | C[C@]12Cc3c[nH]nc3C[C@@H]1CC[C@@H]1[C@@H]2CC[C@@]2(C)[C@H]1CC[C@]2(C)O [Stanozolol] | 83.05%
